Series [1] addresses T1, recombinant HLA-DQ8 protein (Homo sapiens, UniProt P01909+P01920).
T1 construct: contained the extracellular portion of the DQA1*0301 α chain fused to the coiled-coil region of the basic leucine zipper domain of Fos; contained the extracellular portion of the DQB1*0302 β chain fused to the coiled-coil region of the basic leucine zipper domain of JunB; Fos leucine zipper (coiled-coil region) (C); TEV protease site (internal); His6; JunB leucine zipper (coiled-coil region) (C); FLAG; host or cells: baculovirus system
The experiment in a line: DELFIA immunoassay: inhibition of biotinylated InsB:9-23 binding to recombinant HLA-DQ8. To be noted: for inhibition of InsB:9-23 binding to HLA-DQ8 (in words): D-peptides screened at 10 μM, recombinant HLA-DQ8. The text has this: HLA-DQ8 protein was produced using the baculovirus system. Two constructs were designed for both the α and the β chains of HLA-DQ8. The β chain construct contained the extracellular portion of the DQB1*0302 β chain fused to the coiled-coil region of the basic leucine zipper domain of JunB, and the α chain construct contained the extracellular portion of the DQA1*0301 α chain fused to the coiled-coil region of the basic leucine zipper domain of Fos. […] A tobacco etch virus protease cutting site was introduced in each chain to allow removal of the dimerization motif. The JunB and Fos dimerization motifs were added in order to allow the α and β chains to dimerize and form the final HLA-DQ8 protein (FIG. 12A). These constructs were used to produce the HLA-DQ8 protein in a baculovirus system using the Life Technologies Baculovirus protein production custom services (Carlsbad, CA).
D-peptides were produced by Fisher Scientific (Hanover Park, IL) in dry form and dissolved in PBS. All D-peptides were screened at a concentration of 10 μM for their ability to bind to the HLA-DQ8 pocket and block it from binding the InsB:9-23 peptide using a unique immunoassay (23). […] After washing 4 times, DELFIA Europium-labeled streptavidin (PerkinElmer) diluted in DELFIA assay buffer (PerkinElmer) was added for 30 minutes and shaken at slow speed at room temperature. Since the InsB:9-23 peptide was biotinylated the complex HLA-DQ8-InsB:9-23 peptide could be detected using the Europium-labeled streptavidin. After washing for 6 times, DELFIA Enhancement Solution was added for 1 hour or until the optimal signal was reached. Time-resolved fluorescence was measured using the BMG reader (BMG Labtech, Cary, NC). The experiment was performed in triplicate. As a negative control biotinylated InsB:9-23 peptide that was not pre-incubated with HLA-DQ8 was added to the nickel coated plates.
Immunoassay was performed as described above.

Series [2] is described as follows: Half-life and Intrinsic Clearance of RI-CT and RI-EXT (1 µM) after Incubation with Mouse Hepatocytes. The procedure: Table printed on a drawing sheet, FIG. 20
Title: Half-life and Intrinsic Clearance of RI-CT and RI-EXT (1 µM) after Incubation with Mouse Hepatocytes
First reader's note: The footnotes are printed inside the table frame as its last two rows; midazolam is a small-molecule positive control.

Series [3] concerns T-cells of InsB:9-23-immunized SJL-DQ8 mice. The experiment in a line: In vivo D-peptide treatment of InsB:9-23-immunized SJL-DQ8 humanized mice. The arrangement: species or system mouse. The note with it: 200 μg intraperitoneally on days 4, 7, 11 and 14; sacrifice day 17.
Series [4] has as its system splenocytes isolated from SJL-DQ8 mice. In words: Ex vivo CFSE T-cell proliferation, splenocytes of InsB:9-23-immunized SJL-DQ8 mice. It is filed as cell-based, mouse. To be noted: all peptides at 50 μg/ml; 5 days. The text has this: ID NO: 23) and reverse primer [NT]
Series [5] can be described thus: Metabolic stability in mouse hepatocytes. It is filed as in vitro ADME. The note with it: mouse, hepatocytes; 1 μM; read-out: half-life after incubation with mouse hepatocytes (converted). The procedure:
Cryopreserved mouse hepatocytes were thawed at 37° C. in water bath until the ice was almost melted (˜90 seconds). The suspensions from the each were immediately transferred to 50 mL centrifuge tubes containing pre-warmed thawing media (VitroGRO HT Medium, Thawing) at 37° C. The cell suspensions were centrifuged at 50 g for 5 minutes at 4° C. (SYS679). Supernatants were discarded and the pellets were re-suspended in pre-warmed 3 mL incubation media (from in vitroGRO HT Medium, Incubation) at 37° C. The percentages of viable cells in the suspension were determined by using the Trypan Blue stain method (20 μL of tryptan blue and 20 μL of cell suspension) DF=2. Cryo mouse hepatocyte (Bioreclamation, lot #CHV) viability was 72.62% (viable/dead=305/115), and the total cells were 4.57 million. 1.57 mL of incubation media was added to cell concentration to get 1 million cells/mL. 10 μl of 100 μM test compounds stock in ACN:H2O (v:v, 1:1) was added to 990 μl of hepatocyte suspension/incubation media in a 24-well plate. 10 μl of 20 μM Midazolam was added to 990 μl of hepatocyte suspension as a positive control in a 24-well plate. The cells were incubated in a 37° C. incubator (SYS431) for 4 hours. 50 μl of aliquots (n=2) were added to 800 ul of MeOH:water (v:v, 5:95) at 0, 15, 30, 60, 120, 180 and 240 minutes. For all samples, 20 μL of internal standard (200 ng/mL tolbutamide) was added to the solution in water. The samples were vortexed vigorously for 5 minutes and then loaded onto a pre-conditioned Oasis HLB 96-well SPE plate (10 mg, […]). The Oasis HLB 96-well SPE plate was conditioned with 1 mL of methanol and then rinsed with 1 mL of water before the samples were loaded. Once loaded onto the Oasis HLB 96-well SPE plate, residual solution was removed by vacuum. The samples were eluted into a clean 96-well plate with 800 μL of 0.1% formic acid in 70% acetonitrile. The samples were evaporated to dryness under nitrogen at ambient temperature using a TurboVap 96 Concentration Workstation (Caliper Life Sciences). […]

Series [6] relates to PBMCs isolated from DQ8 positive T1D patients. In words: Cytokine production in PBMCs from DQ8 positive recent-onset T1D patients. It is filed as cell-based, human. The note with it: stimulated with InsB:9-23 for 48 h; all peptides at 50 μg/ml. The text has this:
(§1) Subjects with a diagnosis of T1D within the previous 2 years were recruited from the Pediatric Endocrine clinic at Children Hospital at Montefiore and from the adult Endocrine clinics at Montefiore and Mount Sinai Hospitals (New York). Peripheral blood mononuclear cells (PBMCs) were isolated from heparinized blood using Ficoll-Paque (GE Healthcare); freshly isolated PBMCs were used for T-cell activation studies and for genotyping. DNA purified from the blood of the patients was typed for HLA-DQ as previously described (32). PBMCs isolated from DQ8 positive patients were seeded in 96 well plates with 200 μl medium (RPMI, 10% FBS). […] The stimulated PBMCs were assessed for cytokine production and T-cell proliferation as described above for mouse splenocytes. DQ8 typed patients with long standing T1D (>10 years) were used as negative controls in the experiments (no T-cell responses to islet peptides).

Series [7] has the same test system. In words: CFSE T-cell proliferation in PBMCs from DQ8 positive recent-onset T1D patients. To be noted: all peptides at 50 μg/ml. The class given is cell-based, human.
Description: as §1

Series [8] has as its target T2, HLA-DQ8 expressed on BSM cells (Homo sapiens, UniProt P01909+P01920, F237L).
T2 construct: BSM cells that express HLA-DQ8 on their surface; host or cells: BSM cells (B-cell line homozygous for HLA-DQ8)
In words: Flow cytometric analysis of InsB:9-23 peptide binding to BSM cells. The class given is cell-based. To be noted: flow cytometry. Background: A flow cytometer gives signals particle by particle.
Description: N-terminal biotinylated peptide InsB:9-23 (or gliadin) were used to test for binding to BSM cells that express HLA-DQ8 on their surface. APC-streptavidin (BD Biosciences, Franklin Lakes, NJ) were used to detect the biotinylated peptides. […] After 24 hours incubation, cells were stained with PE-mouse anti-human HLA-DQ8 (BD Biosciences) and APC-streptavidin to detect the percent binding of the peptide to BSM cells with or without D-peptides. Percent binding was analyzed by flow cytometry.

Series [9] concerns 5KC cells (TCR specific for the InsB:9-23-DQ8 complex) with BSM cells. The experiment in a line: Mixed lymphocyte reaction (BSM cells loaded with InsB:9-23 and 5KC cells), IL-2 by Luminex. It is filed as cell-based, human, murine. To be noted: peptide loaded on BSM cells. The procedure: BSM cells homozygous for HLA-DQ8 (European Collection of Authenticated Cell Cultures) were cultured in RPMI growth medium (ATCC, Manassas, VA) supplied with 10% fetal bovine serum (FBS) (Sigma), 1% penicillin-streptomycin (Corning, NY), and 2 mM glutamine (Corning). Cells were grown at 37° C., 5% CO2, and passaged 1-2 times a week. 5KC cells (generously provided by Dr. Maki Nakayama, University of Colorado, Denver) were produced and cultured as described (25, 26).
To functionally test in vitro D-peptides ability to block T-cell activation, 10^6 BSM cells were incubated over night with 200 μg/ml InsB:9-23 (or with scrambled InsB:9-23 or gliadin as negative peptides); on the following day InsB:9-23 loaded BSM cells were washed twice with phosphate buffered saline (PBS) to remove excess peptide and RI-CT or RI-EXT peptides (or scrambled RI-CT/RI-EXT, as negative controls) were added to the cells. Following 2 hours of incubation at 37° C. 5KC cells were added to the mixture BSM-InsB:9-23-D-peptides (1:1 proportion) and incubated overnight. 5KC cells are transfected with human T-cell receptor that is activated only upon engagement with HLA-DQ8-InsB:9-23 complex. […] After overnight incubation of the 5KC cells with BSM cells loaded with InsB:9-23 and with different D-peptides IL-2 production was measured in the supernatants by Luminex assay. […]

“Also recorded” adds a separate entry of the source.

As usually defined, the half-life is how long it takes for the measured level to halve.

T2 sequence (P01920 33-261 A45G/Y58L/E77G/D89A/H199R/T217I, other chains not shown): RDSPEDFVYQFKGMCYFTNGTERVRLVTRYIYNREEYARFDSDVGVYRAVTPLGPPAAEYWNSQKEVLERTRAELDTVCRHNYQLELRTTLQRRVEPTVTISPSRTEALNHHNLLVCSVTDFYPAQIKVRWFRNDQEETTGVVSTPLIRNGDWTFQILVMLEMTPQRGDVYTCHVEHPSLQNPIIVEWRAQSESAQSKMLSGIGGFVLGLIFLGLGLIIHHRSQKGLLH

As for `CC(C)C[C@@H](NC(=O)[C@@H](Cc1ccc(O)cc1)NC(=O)[C@@H](CC(C)C)NC(=O)[C@H](NC(=O)[C@@H](CS)NC(=O)CNC(=O)[C@@H](CCC(=O)O)NC(=O)[C@@H](CCCNC(=N)N)NC(=O)CNC(=O)CNC(=O)[C@@H](Cc1ccccc1)NC(=O)[C@H](N)Cc1ccccc1)C(C)C)C(=O)N[C@H](C)C(=O)N[C@H](CCC(=O)O)C(=O)N[C@@H](C(=O)N[C@H](CC(C)C)C(=O)N[C@H](Cc1c[nH]cn1)C(=O)N[C@H](CO)C(=O)NCC(=O)O)C(C)C` [RI-EXT], the “inhibition of InsB:9-23 binding to HLA-DQ8 (in words)” value in series [1] is recorded as “significant inhibition”. For the same molecule, the “inhibition of InsB:9-23 binding to HLA-DQ8 (in words)” value in series [1] (listed as #10) is on record as “best extended sequence”. Moreover, the “dose dependence of the inhibition of InsB:9-23 binding to HLADQ8” value in series [1] (serially diluted to 0.5 μM, FIG. 3D) is on record as “dose-dependent”. In addition, in series [2], the “CLint (mL/min/million cells)” value is 0.012 mL/min/million cells and the “t1/2” value stood at 0.963 h. Also, the “activation of T-cells by InsB:9-23 in immunized mice (IL-2, IFN-γ of splenocytes)” value in series [3] was “significantly blocked”. Besides, the “T-cell proliferation induced by InsB:9-23 (CFSE assay), SJL-DQ8 splenocytes” value in [4] was “significantly suppressed; also recorded: significantly decreased”. The half-life in series [5] was roughly 1 h. In addition, in [6], the “IFN-γ production, PBMCs of DQ8 positive T1D patients” value is on record as “significantly suppressed; also recorded: significantly decreased” and the “IL-2 production, PBMCs of DQ8 positive T1D patients” value is reported as “significantly suppressed; also recorded: significantly decreased”. For the same molecule, the “T-cell proliferation induced by InsB:9-23 (CFSE assay), PBMCs of DQ8 positive T1D patients” value in series [7] is recorded as “significantly suppressed; also recorded: significantly decreased”. Besides, the “inhibition of the binding of InsB:9-23 to DQ8 expressed on BSM cells (in words)” value in [8] (10 μM peptide) is reported as “inhibits the binding”.

Take “SHLVEALYLVCGERG [InsB:9-23, diabetogenic insulin peptide, reference compound]”: the “binding to the recombinant HLA-DQ8 protein” value in [1] (biotinylated peptide, compared to scrambled InsB:9-23, FIG. 3B) is on record as “significant binding”. Moreover, in series [9], the “induction of IL-2 secretion in 5KC cells / activation of 5KC cells” value is “dose-dependent manner”. In addition, the “binding of InsB:9-23 to HLA-DQ8 positive BSM cells” value in series [8] (incubated without D-peptides) turned out to be 84.8%.

Values taken from patent US12552854B2, “Peptides that block presentation of antigenic islet peptides by HLA-DQ8 and methods for treating type-1 diabetes” (Icahn School of Medicine at Mount Sinai, priority 2019, dated 2026).
